{
  "source": "patent US12478601B2",
  "about": "“Dietary product devoid of at least two non essential amino acids” (CANCER RESEARCH TECHNOLOGY LIMITED, priority 2016, dated 2025)",
  "tested_on": "MDA-MB-231 cells",
  "assay": "Cysteine starvation of MDA-MB-231 cells after AMD1 inhibitor pre-treatment",
  "format": "cell-based",
  "conditions": "20 uM for 16 h before medium lacking cysteine",
  "procedure": "FIG. 40. […] MDA-MB-231 cells were initially seeded in complete (DMEM) medium in 24-well plates. After 24 h, cells were treated with AMD1 inhibitor Sardomozide (20 uM) for 16 h or left untreated (Ctr). Cells were then washed with PBS and given medium lacking cysteine but containing all 19 other amino acids. Images (panel a) were captured using a light microscope, and cell counts (panel b) were performed using a CASY TT cell counter. Data are average of three wells. Error bars=STDEV.\nCells (4×10^4-1×10^5) were seeded in complete RPMI or DMEM medium in 24-well plates and allowed to adhere overnight. Cells were then washed with PBS and received assay medium supplemented with the stated amino acids/metabolites/drugs. Assay medium was formulated based on RPMI-1640 medium but lacking amino acids, which were added individually depending on the assay. Assay medium was also supplemented with additional vitamin B6 (20 uM), a co-factor for cysteine synthesis. Cells were counted (using Casy TT cell counter, Innovatis, Roche Applied Science) at the stated time-points, using a “time=0” plate to calculate relative cell number from time of medium change.",
  "data": [
    {"smiles": "N=C(N)N/N=C1\\CCc2c(C(=N)N)cccc21", "note": "[Sardomozide]", "values": [
      {"measurement": "protection from cell death in cysteine starvation", "result": "protects cells from acute sensitivity (i.e. cell death) to cysteine starvation"}
    ]}
  ]
}
